Data reported in US8901118B2, “Compounds and methods for kinase modulation, and indications therefor” (Plexxikon Inc., priority 2010, dated 2014).

Tests used:
[1] = tested on: Osteoclast precursor cells; test: Osteoclast differentiation assay (acid phosphatase readout); type: cell-based
Procedure: Further, an osteoclast differentiation assay is used to assess the efficacy of Fms inhibitors for treating bone disease such as osteoarthritis. On day 0, Osteoclast Medium BulletKit (Lonza catalog #PT-8001, containing Media, FBS, L-Glutamine, PenStrep, RANKL, and M-CSF) media is thawed and the FBS, L-glutamine and PenStrep from the kit is added to 100 mL of Osteoclast Precursor Basal medium to provide the Osteoclast Precursor Growth Medium (OPGM). This is warmed to 37° C. Osteoclast precursor cells (Lonza catalog #2T-110) frozen in cryovial are warmed to 37° C. and transferred to a 50 mL conical tube. The cryovial is rinsed with OPGM and added dropwise to the conical tube of cells with swirling, then the volume is adjusted to 20-30 mL with addition of OPGM. The cells are centrifuged at 200×g for 15 minutes at room temperature and all but approximately 3 mL of supernatant is removed to a new conical tube. The cells are suspended in the remaining supernatant and the volume is adjusted to 10-15 mL with OPGM added dropwise with swirling. The cells are centrifuged at 200×g for 15 minutes at room temperature and all but approximately 1 mL of supernatant is removed. The cells are resuspended in the remaining supernatant, counted, and the volume adjusted with an appropriate amount of OPGM to provide approximately 1×10^5 cells/mL. A 0.1 mL aliquot of cells is added to each well of a 96-well plate. Compound to be tested is prepared in DMSO for plating at a high concentration of 2.5 mM, with 8 point 1:3 serial dilutions. A 1 μL aliquot of each compound dilution is added to a 96 well v-bottom polypropylene plate and 0.124 mL of OPGM is added to the compound. Then 50 μL at of the compound in OPGM is added to the osteoclast precursor cells in 96-well plate (providing highest test concentration of 5 μM). RANKL (2 μg) from the BulletKit is reconstituted in 1 mL of OPGM, then vortexed and centrifuged briefly. A 792 μL at aliquot of RANKL is added to 6 mL of OPGM and 50 μL at is added to low control wells. Then 76.6 μL M-CSF (10 μg/mL) from the BulletKit is added to the remaining 5.8 mL of OPGM/RANKL solution (4×RANKL/M-CSF/OPGM). A 50 μL at aliquot of this is added to the remaining wells, and the remainder is stored at 4° C. for later use. The plate is incubated at 37° C. for 6 days, then the remaining OPGM/RANKL/M-CSF solution is warmed to 37° C. The remaining approximately 198 μL is combined with 6 mL of OPGM. The media is aspirated from the osteoclast wells and 100 μL of RANKL/OPGM is added to the low controls. The remaining RANKL/OPGM is combined with the approximately 18.5 μL of remaining M-CSF. The remaining 4×RANKL/M-CSF/OPGM from day 0 is diluted to 1× and combined with the freshly prepared solution. A 0.1 mL aliquot of this is added to each osteoclast well and incubated for 37° C. for 1 day. The Acid Phosphatase kit (Cayman Chemical catalog #10008051) is warmed to room temperature. The assay buffer is diluted 5 mL with 45 mL of water. For each plate, two substrate tablets are dissolved in 4.5 mL of the assay buffer, mixing by vortex to break up the tablet. Stop solution is diluted 12 mL with 36 mL of water. In a tissue culture hood, 20 μL of each osteoclast well supernatant is transferred to a 96 well plate. A 30 μL aliquot of the substrate solution is added to each well and incubated at 37° C. for 20 minutes, then added 100 μL stop solution to each well. The absorbance of each well is read at 405 nm on Safire plate reader. The absorbance reading is plotted vs. concentration to provide the IC50 for each compound.

[2] = molecular target: TrkA kinase (Homo sapiens, UniProt P04629); test: TrkA kinase biochemical activity assay (AlphaScreen); settings: 100 μM ATP; read-out: Biochemical Inhibition IC50 TrkA
Summary of the method: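 IC50 values come from AlphaScreen PY20/streptavidin bead signal versus compound concentration. Kinase reaction: 1 ng/well TrkA, 100 μM ATP, 30 nM biotin-(E4Y)10 substrate, Mn2+-containing Hepes buffer pH 7.5, 5% DMSO, 40 min, room temperature; TrkC assayed by the same approach.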

Sequence of TrkA kinase (P04629 33-796): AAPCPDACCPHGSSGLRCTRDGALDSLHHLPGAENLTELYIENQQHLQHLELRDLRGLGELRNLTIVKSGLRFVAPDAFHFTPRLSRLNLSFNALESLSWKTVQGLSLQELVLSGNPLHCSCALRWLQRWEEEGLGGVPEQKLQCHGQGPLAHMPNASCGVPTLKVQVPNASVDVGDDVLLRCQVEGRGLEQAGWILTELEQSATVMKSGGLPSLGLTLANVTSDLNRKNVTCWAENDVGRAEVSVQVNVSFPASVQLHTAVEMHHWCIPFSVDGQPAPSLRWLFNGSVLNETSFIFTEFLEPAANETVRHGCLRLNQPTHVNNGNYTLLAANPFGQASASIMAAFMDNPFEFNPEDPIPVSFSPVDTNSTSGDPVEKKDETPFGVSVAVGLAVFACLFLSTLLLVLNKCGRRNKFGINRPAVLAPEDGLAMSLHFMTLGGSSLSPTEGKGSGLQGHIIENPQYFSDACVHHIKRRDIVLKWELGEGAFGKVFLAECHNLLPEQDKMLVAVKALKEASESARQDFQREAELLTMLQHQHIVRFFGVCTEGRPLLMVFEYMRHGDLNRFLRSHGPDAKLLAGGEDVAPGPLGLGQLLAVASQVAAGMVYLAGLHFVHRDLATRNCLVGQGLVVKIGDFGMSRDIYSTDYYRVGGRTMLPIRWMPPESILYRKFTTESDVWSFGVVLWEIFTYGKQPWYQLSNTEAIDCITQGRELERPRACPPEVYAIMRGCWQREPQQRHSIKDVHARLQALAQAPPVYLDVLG

Structure (SMILES)	IC50 [1]	IC50 [2]
Cc1cnc2[nH]cc(Cc3ccc(NC4CCCCC4)nc3F)c2c1 [Compound P-3008, cyclohexyl-[6-fluoro-5-(5-methyl-1H-pyrrolo[2,3-b]pyridin-3-ylmethyl)-pyridin-2-yl]-amine]	< 100 nM	
O=C(c1ccc(Nc2ccc(C3CC3)nc2)nc1F)c1c[nH]c2ncnc(C3CC3)c12 [Compound P-4040, [6-(6-Cyclopropyl-pyridin-3-ylamino)-2-fluoro-pyridin-3-yl]-(4-cyclopropyl-7H-pyrrolo[2,3-d]pyrimidin-5-yl)-methanone]		< 10 nM
Fc1nc(Nc2ccc(C3CC3)nc2)ccc1Cc1c[nH]c2ncnc(C3CC3)c12 [Compound P-4041, (6-Cyclopropyl-pyridin-3-yl)-[5-(4-cyclopropyl-7H-pyrrolo[2,3-d]pyrimidin-5-ylmethyl)-6-fluoro-pyridin-2-yl]-amine]		< 10 nM
Nc1ncnc2[nH]cc(C(=O)c3ccc(NC4CCC(F)(F)CC4)nc3Cl)c12 [Compound P-4046, (4-amino-7H-pyrrolo[2,3-d]pyrimidin-5-yl)-[2-chloro-6-[(4,4-difluorocyclohexyl)amino]-3-pyridyl]methanone]		< 1000 nM
CC(C)=CNc1ncnc2[nH]cc(C(=O)c3ccc(NC4CCC(F)(F)CC4)nc3Cl)c12 [Compound P-4047, [2-chloro-6-[(4,4-difluorocyclohexyl)amino]-3-pyridyl]-[4-(2-methylprop-1-enylamino)-7H-pyrrolo[2,3-d]pyrimidin-5-yl]methanone]		> 1000 nM
Nc1ncnc2[nH]cc(C(=O)c3ccc(Nc4ccc(C5CC5)nc4)nc3F)c12 [Compound P-4048, (4-amino-7H-pyrrolo[2,3-d]pyrimidin-5-yl)-[6-[(6-cyclopropyl-3-pyridyl)amino]-2-fluoro-3-pyridyl]methanone]		< 10 nM
CC(C)(O)CNc1ncnc2[nH]cc(C(=O)c3ccc(Nc4ccc(C5CC5)nc4)nc3F)c12 [Compound P-4049, [6-[(6-cyclopropyl-3-pyridyl)amino]-2-fluoro-3-pyridyl]-[4-[(2-hydroxy-2-methyl-propyl)amino]-7H-pyrrolo[2,3-d]pyrimidin-5-yl]methanone]		< 10 nM
CCNc1ncnc2[nH]cc(C(=O)c3ccc(NC4CCC(F)(F)CC4)nc3Cl)c12 [Compound P-4050, [2-chloro-6-[(4,4-difluorocyclohexyl)amino]-3-pyridyl]-[4-(ethylamino)-7H-pyrrolo[2,3-d]pyrimidin-5-yl]methanone]		< 1000 nM
CCNc1ncnc2[nH]cc(C(=O)c3cnc(NC4CCC(F)(F)CC4)c(F)c3)c12 [Compound P-4051, [6-[(4,4-difluorocyclohexyl)amino]-5-fluoro-3-pyridyl]-[4-(ethylamino)-7H-pyrrolo[2,3-d]pyrimidin-5-yl]methanone]		< 10 nM
O=C(c1cnc(NC2CCC(F)(F)CC2)c(F)c1)c1c[nH]c2ncnc(NCC(F)(F)F)c12 [Compound P-4052, [6-[(4,4-difluorocyclohexyl)amino]-5-fluoro-3-pyridyl]-[4-(2,2,2-trifluoroethylamino)-7H-pyrrolo[2,3-d]pyrimidin-5-yl]methanone]		< 1000 nM
O=C(c1cnc(NC2CCC(F)(F)CC2)c(F)c1)c1c[nH]c2ncnc(NC3CC3)c12 [Compound P-4053, [4-(cyclopropylamino)-7H-pyrrolo[2,3-d]pyrimidin-5-yl]-[6-[(4,4-difluorocyclohexyl)amino]-5-fluoro-3-pyridyl]methanone]		< 10 nM
CNc1ncnc2[nH]cc(C(=O)c3cnc(NC4CCC(F)(F)CC4)c(F)c3)c12 [Compound P-4054, [6-[(4,4-difluorocyclohexyl)amino]-5-fluoro-3-pyridyl]-[4-(methylamino)-7H-pyrrolo[2,3-d]pyrimidin-5-yl]methanone]		< 100 nM
